{"source": "paper PMC3117126", "about": "(Journal of medicinal chemistry, 2011)", "key": {"human P2Y4 receptor [1]": {"target": "T1, human P2Y4 receptor (Homo sapiens, UniProt P51582)", "T1 sequence (P51582 whole entry)": "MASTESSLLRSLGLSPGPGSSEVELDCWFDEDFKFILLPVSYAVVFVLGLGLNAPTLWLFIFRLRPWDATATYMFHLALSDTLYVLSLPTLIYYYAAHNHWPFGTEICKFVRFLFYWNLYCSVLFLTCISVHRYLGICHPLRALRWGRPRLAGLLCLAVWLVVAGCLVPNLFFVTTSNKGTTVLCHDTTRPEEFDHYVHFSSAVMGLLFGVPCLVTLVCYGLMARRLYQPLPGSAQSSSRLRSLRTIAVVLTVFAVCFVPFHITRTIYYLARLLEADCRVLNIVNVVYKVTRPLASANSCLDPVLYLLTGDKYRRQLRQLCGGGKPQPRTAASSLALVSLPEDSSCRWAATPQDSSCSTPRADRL", "test": "PLC activation", "assay_type": "cell-based", "details": "for selectivity for human P2Y4 over P2Y2 and P2Y6 receptors: over both P2Y2 and P2Y6"}, "human P2Y2 receptor": {"target": "human P2Y2 receptor (Homo sapiens, UniProt P41231)", "sequence (P41231 whole entry)": "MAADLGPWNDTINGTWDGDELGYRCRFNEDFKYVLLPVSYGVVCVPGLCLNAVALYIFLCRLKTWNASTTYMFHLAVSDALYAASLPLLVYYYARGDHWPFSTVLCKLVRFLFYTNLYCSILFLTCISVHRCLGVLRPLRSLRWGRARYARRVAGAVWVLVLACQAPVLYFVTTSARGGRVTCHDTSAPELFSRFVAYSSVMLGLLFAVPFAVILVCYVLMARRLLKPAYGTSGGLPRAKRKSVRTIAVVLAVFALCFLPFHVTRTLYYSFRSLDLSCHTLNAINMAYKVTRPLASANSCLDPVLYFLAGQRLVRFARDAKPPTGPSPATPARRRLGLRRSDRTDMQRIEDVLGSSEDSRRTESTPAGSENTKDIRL", "test": "PLC activation", "assay_type": "cell-based", "details": "for effect at 10 µM, hP2Y2: printed in EC50 column, NE = no effect at 10 µM"}, "[2]": {"test": "Chemical stability: hydrolysis at 37°C and pH 1.5, HPLC", "assay_type": "physicochemical", "details": "pH 1.5, 0.2 mg/mL, compared with 1 (UTP)"}, "human P2Y4 receptor [3]": {"target": "T1, human P2Y4 receptor", "details": "cited from earlier work"}}, "note": "Where a name gives a salt, the structure may show the parent alone."}
{"smiles": "O=c1ccn([C@@H]2O[C@H](COP(=O)(O)OP(=O)(O)OP(=O)(O)OP(=O)(O)O[C@H]3O[C@H](CO)[C@@H](O)[C@@H](O)[C@H]3O)[C@@H](O)[C@H]2O)c(=O)[nH]1", "note": "[Compound 28, Uridine-5′-allose-1′-tetraphosphate triethylammonium salt]", "values": [{"measurement": "increase in P2Y4 receptor potency relative to Up4-[1]glucose 8", "setting": "human P2Y4 receptor [1]; compared with 8", "value": 11, "unit": "fold"}]}
{"smiles": "COc1cccc(OP(=O)(O)OP(=O)(O)OP(=O)(O)OP(=O)(O)OC[C@H]2O[C@@H](n3ccc(=O)[nH]c3=O)[C@H](O)[C@@H]2O)c1", "note": "[Compound 23, Uridine-5′-(3-methoxyphenyl)-tetraphosphate triethylammonium salt]", "values": [{"measurement": "effect at 10 µM, hP2Y2", "setting": "human P2Y2 receptor", "value": "≤50", "unit": "% at 10 µM"}]}
{"smiles": "COc1ccc(OP(=O)(O)OP(=O)(O)OP(=O)(O)OP(=O)(O)OC[C@H]2O[C@@H](n3ccc(=O)[nH]c3=O)[C@H](O)[C@@H]2O)cc1", "note": "[Compound 22, Uridine-5′-(4-methoxyphenyl)-tetraphosphate triethylammonium salt]", "values": [{"measurement": "effect at 10 µM, hP2Y2", "setting": "human P2Y2 receptor", "value": "≤50", "unit": "% at 10 µM"}]}
{"smiles": "O=c1ccn([C@@H]2O[C@H](COP(=O)(O)OP(=O)(O)OP(=O)(O)OP(=O)(O)O[C@H]3OC[C@@H](O)[C@H](O)[C@H]3O)[C@@H](O)[C@H]2O)c(=O)[nH]1", "note": "[Compound 30, Uridine-5′-xylose-1′-tetraphosphate triethylammonium salt]", "values": [{"measurement": "reduction in potency at P2Y2 receptor relative to 8", "setting": "human P2Y2 receptor; fold less potent than 8", "value": 9, "unit": "fold"}]}
{"smiles": "O=c1ccn([C@@H]2O[C@H](COP(=O)(O)OP(=O)(O)C(Cl)(Cl)P(=O)(O)OP(=O)(O)O[C@H]3O[C@H](CO)[C@@H](O)[C@H](O)[C@H]3O)[C@@H](O)[C@H]2O)c(=O)[nH]1", "note": "[Compound 26, Uridine-5′-glucose-1′-β,γ-dichloromethylene tetraphosphate triethylammonium salt]", "values": [{"measurement": "effect at 10 µM, hP2Y2", "setting": "human P2Y2 receptor", "value": "≤50", "unit": "% at 10 µM"}]}
{"smiles": "O=c1ccn([C@@H]2O[C@H](COP(=O)(O)OP(=O)(O)OP(=O)(O)OP(=O)(O)O[C@H]3O[C@H](CO)[C@@H](O)[C@H](O)[C@H]3O)[C@@H](O)[C@H]2O)c(=O)[nH]1", "note": "[Compound 8, Up4-[1]glucose, reference compound]", "values": [{"measurement": "stability at pH 1.5", "setting": "[2]", "value": "less stable at pH 1.5 than 1"}]}
{"smiles": "O=c1ccn([C@@H]2O[C@H](COP(=O)(O)OP(=O)(O)OP(=O)(O)OP(=O)(O)Oc3ccc([N+](=O)[O-])cc3)[C@@H](O)[C@H]2O)c(=O)[nH]1", "note": "[Compound 24, Uridine-5′-(4-nitrophenyl)-tetraphosphate triethylammonium salt]", "values": [{"measurement": "effect at 10 µM, hP2Y2", "setting": "human P2Y2 receptor", "value": "abolished activity"}]}
{"smiles": "O=c1[nH]/c(=N\\OCCCc2ccccc2)ccn1[C@@H]1O[C@H](COP(=O)(O)OP(=O)(O)OP(=O)(O)O)[C@@H](O)[C@H]1O", "note": "[Compound 16, N^4-Phenylpropoxycytidine-5′-triphosphate triethylammonium salt]", "values": [{"measurement": "selectivity for human P2Y4 over P2Y2 and P2Y6 receptors", "setting": "human P2Y4 receptor [1]", "value": "≥ 10", "unit": "fold"}]}
{"smiles": "O=c1ccn([C@@H]2O[C@H](COP(=O)(O)OP(=O)(O)OP(=O)(O)OP(=O)(O)O[C@H]3O[C@H](CO)[C@@H](O)[C@H](F)[C@H]3O)[C@@H](O)[C@H]2O)c(=O)[nH]1", "note": "[Compound 34, P^1-(Uridine-5′-)P^4-(3′-deoxy-3′-fluoroglucose-1′-)tetraphosphate triethylammonium salt]", "values": [{"measurement": "selectivity for human P2Y4 over P2Y2 and P2Y6 receptors", "setting": "human P2Y4 receptor [1]", "value": "≥ 10", "unit": "fold"}, {"measurement": "stability at pH 1.5", "setting": "[2]", "value": "much more labile"}]}
{"smiles": "[N-]=[N+]=N[C@@H]1[C@H](O)[C@@H](COP(=O)(O)OP(=O)(O)OP(=O)(O)O)O[C@H]1n1ccc(=O)[nH]c1=O", "note": "[Compound 3]", "values": [{"measurement": "selectivity for the P2Y4 receptor in comparison to the P2Y2 receptor", "setting": "human P2Y4 receptor [3]", "value": 5, "unit": "fold"}]}
{"smiles": "O=c1[nH]/c(=N\\OCCc2ccccc2)ccn1[C@@H]1O[C@H](COP(=O)(O)OP(=O)(O)OP(=O)(O)O)[C@@H](O)[C@H]1O", "note": "[Compound 15, N^4-Phenylethoxycytidine-5′-triphosphate triethylammonium salt]", "values": [{"measurement": "selectivity for human P2Y4 over P2Y2 and P2Y6 receptors", "setting": "human P2Y4 receptor [1]", "value": "≥ 10", "unit": "fold"}]}
